Measured values from US20250228835A1, “PYRIDINYLOXYPYRIDINES AND RELATED COMPOUNDS AND THEIR USE IN TREATING MEDICAL CONDITIONS” (Rectify Pharmaceuticals, Inc., priority 2024, published 2025).

Key:
ABCD2 WT = molecular target: T1, ABCD2 WT (Homo sapiens, UniProt Q9UBJ2); assay: D2 correction dose-response assay: ABCD2 WT HiBit protein expression; type: cell-based; conditions: HEK-293/ABCD2 WT cells, 24 hours treatment, HiBit luminescence; class combines EC50 and Mean MaxAct (fold); read-out: ABCD2 WT EC50, Emax
T1 construct: expressed in transfected cells
T1 sequence (Q9UBJ2 1-740): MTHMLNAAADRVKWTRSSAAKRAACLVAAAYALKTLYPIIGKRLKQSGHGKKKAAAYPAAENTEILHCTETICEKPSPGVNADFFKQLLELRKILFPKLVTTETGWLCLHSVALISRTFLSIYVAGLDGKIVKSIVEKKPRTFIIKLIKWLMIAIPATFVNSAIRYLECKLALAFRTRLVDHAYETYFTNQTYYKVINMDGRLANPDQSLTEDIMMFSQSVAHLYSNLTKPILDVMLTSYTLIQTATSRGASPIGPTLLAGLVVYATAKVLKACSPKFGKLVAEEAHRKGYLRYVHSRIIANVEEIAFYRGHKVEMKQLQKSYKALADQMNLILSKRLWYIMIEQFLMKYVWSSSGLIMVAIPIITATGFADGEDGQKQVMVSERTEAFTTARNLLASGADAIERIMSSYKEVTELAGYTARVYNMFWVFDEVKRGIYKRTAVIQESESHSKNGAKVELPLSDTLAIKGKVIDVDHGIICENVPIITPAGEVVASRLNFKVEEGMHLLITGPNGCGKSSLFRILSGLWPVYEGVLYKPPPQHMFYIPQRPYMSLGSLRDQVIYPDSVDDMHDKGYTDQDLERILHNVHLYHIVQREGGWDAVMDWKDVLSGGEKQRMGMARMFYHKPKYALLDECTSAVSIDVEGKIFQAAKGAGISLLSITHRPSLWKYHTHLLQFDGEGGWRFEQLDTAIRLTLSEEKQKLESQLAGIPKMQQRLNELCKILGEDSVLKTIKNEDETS
Method: Exemplary compounds were evaluated in a D2 correction dose-response assay.
To assess activity against ABCD2, the compounds were screened in an assay measuring protein expression, using cells transfected with cDNA encoding HiBit-tagged ABCD2 wild-type. Here we describe an assay for measuring the expression of the wild type of human ABCD2 (henceforth referred to as ABCD2 WT) and the use of this assay to measure the efficacy of compounds to increase the expression of ABCD2 WT. The assay was designed to characterize the efficacy and potency of compounds to increase the expression of ABCD2 WT by calculating an Emax and EC50 value. HEK-293 cells stably expressing ABCD2 WT (HEK-293/ABCD2 WT) were used for this assay and were maintained at 37° C. (5% CO2, humidified) in Dulbecco's Modified Eagle Medium (DMEM, Gibco product #12100) supplemented with 10% fetal bovine serum (Biosera product #FB-1058/500), 1% PenStrep (HDB product #15140-122), and 0.5 mg/mL puromycin (Gibco product #A11138-03). For the assay, the HEK-293/ABCD2 WT cells were seeded in white/opaque 384-well plates (Corning product #3570) at 10,000 cells/well in 20 μl growth medium and allowed to settle for 4 hours at 37° C. (5% CO2, humidified). Compound serial dilutions are prepared in DMSO as three hundred times (333×) the final concentration and using a dilution factor of 3 using Bravo (Agilent). After the four-hour incubation period, 60 nL of DMSO solutions are transferred to the assay plate.
Dose response curves include eleven doses with the top final concentration at 30 μM in 0.3% DMSO. Liquid handling is performed with ECHO 550 Acoustic Liquid Handler (Labcyte). After addition of compound treatment, cells are incubated for 24 hours at 37° C. (5% CO2, humidified). After the 24-hour treatment, plates are allowed to equilibrate to room temperature for 10 minutes. Using Dragonfly Automated Liquid Handler (TTP LabTech), 20 μl of HiBit lytic assay reagent (Promega, product #N3040), which is prepared according to manufacturer's instructions, is added to each well. The plates are rotated at room temperature for 2 minutes and incubated for 1 hour at 25° C. before luminescent signal is acquired using an EnVision Multimode Plate Reader (PerkinElmer).

ABCC6 WT = molecular target: T2, ABCC6 WT (Homo sapiens, UniProt O95255); assay: ABCC6 WT assay: HiBit protein expression; type: cell-based; conditions: HEK-293 cells transiently expressing HiBit-tagged ABCC6 WT; 24 h treatment; top concentration 20 μM; read-out: ABCC6 WT EC50, Emax
T2 construct: expressed in transfected cells; host or cells: HEK-293 (transient, Lipofectamine 2000)
Excerpt: To assess activity against ABCC6, compounds were screened in an assay measuring protein expression, using cells transfected with cDNA encoding HiBit-tagged ABCC6 wild-type.
Described here is an assay for measuring the expression of the wild type of human ABCC6 (henceforth referred to as ABCC6 WT) and the use of this assay to measure the efficacy of compounds to increase the expression of ABCC6 WT. The assay was designed to characterize the efficacy and potency of compounds to increase the expression of ABCC6 WT by calculating an Emax and EC50 value. HEK-293 cells transiently expressing ABCC6 WT (HEK-293/ACC6 WT) were used for this assay and were cultured at 37° C. (5% CO2, humidified) in Dulbecco's Modified Eagle Medium (DMEM, Gibco product #11965-092) supplemented with 10% fetal bovine serum. For the assay, HEK-293 cells were transfected with […]/10 cm plate of cDNA encoding HiBit-tagged ABCC6 wild-type using Lipofectamine 2000 (Thermo Fisher, product #11668019). Twenty-four hours after transfection, the HEK-293/ACC6 WT cells were seeded in white/opaque 384-well plates (PerkinElmer, cat. No. 6007688) at 10,000 cells/well in 20 μl growth medium and allowed to settle for 4 hours at 37° C. (5% CO2, humidified). Compound serial dilutions are prepared in growth medium as ten times (10×) the final concentration and using a dilution factor of 2. After the four-hour incubation period, 2.2 μL of the 10× dilutions are transferred to the assay plate.
Dose response curves include ten doses with the top final concentration at 20 μM in 0.15% DMSO. Liquid handling is performed with an Integra mini96-tip head (INTEGRA). After addition of compound treatment, cells are incubated for 24 hours at 37° C. (5% CO2, humidified). After the 24-hour treatment, plates are allowed to equilibrate for 15 minutes at room temperature. Using Integra mini-96, 20 μl of HiBit lytic assay reagent (Promega, product #N3040), which is prepared according to manufacturer's instructions, is added to each well. The plates are rotated at room temperature for 10 minutes and luminescent signal is acquired using an EnVision Multimode Plate Reader (PerkinElmer).
Results are presented below in Table 4 for ABCC6 WT.

T2 sequence (O95255 whole entry): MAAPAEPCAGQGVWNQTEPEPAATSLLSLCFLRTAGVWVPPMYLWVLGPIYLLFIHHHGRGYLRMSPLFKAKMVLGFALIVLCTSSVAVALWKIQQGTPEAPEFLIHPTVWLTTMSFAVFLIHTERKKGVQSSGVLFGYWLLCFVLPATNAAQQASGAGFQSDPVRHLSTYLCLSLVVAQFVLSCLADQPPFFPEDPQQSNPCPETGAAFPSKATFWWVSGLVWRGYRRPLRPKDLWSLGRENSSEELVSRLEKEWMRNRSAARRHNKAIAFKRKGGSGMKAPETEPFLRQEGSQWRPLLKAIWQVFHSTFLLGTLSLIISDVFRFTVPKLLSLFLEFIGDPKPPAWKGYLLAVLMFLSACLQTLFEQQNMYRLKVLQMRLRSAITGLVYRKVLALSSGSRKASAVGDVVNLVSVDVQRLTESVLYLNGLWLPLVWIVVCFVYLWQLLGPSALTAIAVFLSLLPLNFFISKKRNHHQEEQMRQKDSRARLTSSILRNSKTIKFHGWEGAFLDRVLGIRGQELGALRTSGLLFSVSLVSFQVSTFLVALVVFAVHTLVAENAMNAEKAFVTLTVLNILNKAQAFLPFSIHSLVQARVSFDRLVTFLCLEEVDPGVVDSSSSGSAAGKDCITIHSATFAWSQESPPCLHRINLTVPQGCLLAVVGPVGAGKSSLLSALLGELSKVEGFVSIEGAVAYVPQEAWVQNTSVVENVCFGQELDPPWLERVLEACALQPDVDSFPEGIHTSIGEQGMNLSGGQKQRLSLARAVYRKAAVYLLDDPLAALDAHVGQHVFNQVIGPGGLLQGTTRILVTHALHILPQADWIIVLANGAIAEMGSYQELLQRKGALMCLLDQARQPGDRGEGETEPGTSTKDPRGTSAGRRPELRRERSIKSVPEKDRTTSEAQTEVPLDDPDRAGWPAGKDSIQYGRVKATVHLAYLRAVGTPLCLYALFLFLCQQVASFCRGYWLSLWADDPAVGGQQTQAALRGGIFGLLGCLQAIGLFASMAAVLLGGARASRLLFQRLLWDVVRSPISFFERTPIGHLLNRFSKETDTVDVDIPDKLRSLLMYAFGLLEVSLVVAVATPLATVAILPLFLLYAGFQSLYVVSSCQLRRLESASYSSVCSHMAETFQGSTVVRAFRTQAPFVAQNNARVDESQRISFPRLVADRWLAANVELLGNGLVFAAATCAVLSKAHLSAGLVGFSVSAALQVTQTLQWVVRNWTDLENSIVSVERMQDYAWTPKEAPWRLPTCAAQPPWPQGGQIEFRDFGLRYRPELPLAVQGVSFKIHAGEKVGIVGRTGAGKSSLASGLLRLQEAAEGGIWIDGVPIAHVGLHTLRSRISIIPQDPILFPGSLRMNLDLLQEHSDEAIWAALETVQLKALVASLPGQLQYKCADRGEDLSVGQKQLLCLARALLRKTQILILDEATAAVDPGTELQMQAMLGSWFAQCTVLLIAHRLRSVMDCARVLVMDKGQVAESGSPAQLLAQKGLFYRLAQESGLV

EC50 (ABCD2 WT)	EC50 (ABCC6 WT)	SMILES
< 1000 nM	< 1000 nM	Cc1nc(C(F)(F)F)nc(C2CC2)c1Oc1nc(-c2cncc(Cl)c2)ccc1NS(C)(=O)=O [Compound I-151]
< 1000 nM	< 1000 nM	CCS(=O)(=O)Nc1ccc(-c2cncc(C#N)c2)nc1Oc1c(C)cc(C(F)(F)F)nc1C1CC1 [Compound I-152]
1000 to 10000 nM	1000 to 10000 nM	Cc1cc(C(F)(F)F)nc(C2CC2)c1Oc1nc(-c2cncc(Cl)c2)ccc1N(C)S(C)(=O)=O [Compound I-153]
> 25000 nM	< 25000 nM	Cc1nc(C(F)(F)F)cc(C2CC2)c1Oc1nc(-c2cncc(C#N)c2)ccc1N(C)S(C)(=O)=O [Compound I-154]
> 25000 nM	< 1000 nM	Cc1nc(C(F)(F)F)cc(C2CC2)c1Oc1nc(-c2cncc(C#N)c2)ccc1NS(C)(=O)=O [Compound I-155]
< 1000 nM	≥ 25000 nM	Cc1cc(C(F)(F)F)nc(C2CC2)c1Oc1nc(-c2cncc(C#N)c2)ccc1N(C)S(C)(=O)=O [Compound I-156]
10000 to 25000 nM	≥ 25000 nM	Cc1nc(C)c(Oc2nc(-c3cncc(C#N)c3)ccc2N(C)S(C)(=O)=O)c(C2CC2)n1 [Compound I-157]
< 1000 nM	< 1000 nM	Cc1cc(C(F)(F)F)nc(C2CC2)c1Oc1nc(-c2cncc(Cl)c2)ccc1NS(C)(=O)=O [Compound I-158]
< 1000 nM	< 1000 nM	Cc1nc(N2CC(C#N)C2)nc(C)c1Oc1nc(-c2cncc(C#N)c2)ccc1NS(C)(=O)=O [Compound I-159]
> 25000 nM	1000 to 10000 nM	Cc1nc(N2CC3(COC3)C2)nc(C)c1Oc1nc(-c2cncc(C#N)c2)ccc1NS(C)(=O)=O [Compound I-160]
> 25000 nM	< 1000 nM	Cc1cc(C2CC2)nc(C2CC2)c1Oc1nc(-c2cncc(C#N)c2)ccc1NS(C)(=O)=O [Compound I-161]
> 25000 nM	< 1000 nM	Cc1nc(C2CC2)cc(C2CC2)c1Oc1nc(-c2cncc(C#N)c2)ccc1NS(C)(=O)=O [Compound I-162]
< 1000 nM	< 1000 nM	Cc1cc(C(F)(F)F)nc(C2CC2)c1Oc1nc(-c2cncc(C#N)c2)ccc1NS(C)(=O)=O [Compound I-163]
1000 to 10000 nM	< 25000 nM	Cc1nc(C)c(Oc2nc(-c3cncc(Cl)c3)ccc2NS(C)(=O)=O)c(C2CC2)n1 [Compound I-164]
< 1000 nM	< 1000 nM	Cc1cc(C(F)(F)F)nc(C2CC2)c1Oc1nc(-c2cncc(C#N)c2)ccc1N=S(C)(C)=O [Compound I-286]
> 25000 nM	≥ 25000 nM	Cc1cc(C(F)(F)F)nc(C2CC2)c1Oc1nc(-c2cncc(C#N)c2)ccc1S(=N)(=O)C1CC1 (stereo not drawn) [Compound I-287]
1000 to 10000 nM	< 1000 nM	Cc1cc(C(F)F)nc(C2CC2)c1Oc1nc(-c2cncc(C#N)c2)ccc1S(=O)(=O)NC1CC1 [Compound I-288]

EC50 (ABCD2 WT)	EC50 (ABCC6 WT)	SMILES
1000 to 10000 nM	< 1000 nM	CNS(=O)(=O)c1ccc(-c2cncc(C#N)c2)nc1Oc1c(C)cc(C(F)F)nc1C1CC1 [Compound I-289]
> 25000 nM	≥ 25000 nM	Cc1cc(C(F)(F)F)nc(C2CC2)c1Oc1nc(-c2cncc(C#N)c2)ccc1S(=O)(=O)N1CCOCC1 [Compound I-290]
1000 to 10000 nM	1000 to 10000 nM	Cc1cc(C(F)(F)F)nc(C2CC2)c1Oc1nc(-c2cncc(C#N)c2)ccc1S(=O)(=O)N(C)C [Compound I-291]
1000 to 10000 nM	< 1000 nM	Cc1nc(C(F)(F)F)nc(C2CC2)c1Oc1nc(-c2cncc(C#N)c2)ccc1S(=O)(=O)NC1CC1 [Compound I-292]
1000 to 10000 nM	1000 to 10000 nM	CNS(=O)(=O)c1ccc(-c2cncc(C#N)c2)nc1Oc1c(C)cc(C(F)(F)F)nc1C1CC1 [Compound I-293]
< 1000 nM	< 1000 nM	Cc1cc(C(F)(F)F)nc(C2CC2)c1Oc1nc(-c2cncc(C#N)c2)ccc1S(=O)(=O)Nc1cccnc1 [Compound I-294]
10000 to 25000 nM	< 1000 nM	Cc1cc(C(F)(F)F)nc(C2CC2)c1Oc1nc(-c2cccc(C#N)c2)ccc1S(=N)(=O)C1CC1 (stereo not drawn) [Compound I-295]
< 1000 nM	1000 to 10000 nM	Cc1cc(C(F)(F)F)nc(C2CC2)c1Oc1nc(-c2cncc(C#N)c2)ccc1S(=N)(=O)c1cccnn1 (stereo not drawn) [Compound I-296]
1000 to 10000 nM	1000 to 10000 nM	Cc1cc(C(F)(F)F)nc(C2CC2)c1Oc1nc(-c2cncc(C#N)c2)ccc1S(=N)(=O)c1cnccn1 (stereo not drawn) [Compound I-297]
1000 to 10000 nM	1000 to 10000 nM	CNS(=O)(=O)c1ccc(-c2cncc(C#N)c2)nc1Oc1c(C)cc(C2CC2)nc1C1CC1 [Compound I-298]
< 1000 nM	< 1000 nM	Cc1sc(C2CC2)nc1Oc1nc(-c2cncc(C#N)c2)ccc1NS(C)(=O)=O [Compound I-299]
< 1000 nM	< 1000 nM	Cc1nc(Oc2nc(-c3cncc(C#N)c3)ccc2NS(C)(=O)=O)c(C2CC2)s1 [Compound I-300]
10000 to 25000 nM	1000 to 10000 nM	Cc1cc(C(F)(F)F)nc(C2CC2)c1Oc1nc(-c2cncc(C#N)c2)ccc1S(=N)(=O)C1CCOCC1 (stereo not drawn) [Compound I-301]
10000 to 25000 nM	10000 to 25000 nM	Cc1cc(C(F)(F)F)nc(C2CC2)c1Oc1nc(-c2cncc(C#N)c2)ccc1S(=N)(=O)c1ccccn1 (stereo not drawn) [Compound I-302]
> 25000 nM	1000 to 10000 nM	Cc1nc(C(F)(F)F)nc(C2CC2)c1Oc1nc(-c2cncc(C#N)c2)ccc1S(=N)(=O)C1CC1 (stereo not drawn) [Compound I-303]
< 1000 nM	1000 to 10000 nM	Cc1cc(C(F)(F)F)nc(C2CC2)c1Oc1nc(-c2cncc(C#N)c2)ccc1S(=N)(=O)c1cccnc1 (stereo not drawn) [Compound I-304]
